# Test results taken from PubChem BioAssay (NCI).
#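 Growth conditions: 96-well plates. Treatment: test compound, 48 hours, 5 concentrations. Analysis: linear interpolation between bracketing concentrations; unreached endpoints set to highest concentration. GI50 = concentration required for 50% inhibition of growth. The concentration for full growth arrest is given as TGI.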
# Tests used:
# Assay in all cases: NCI-60 cell line screen, 48 h
# 786-0 renal = test system: 786-0 renal
# A498 renal = test system: A498 renal
# A549 NSCLC = test system: A549 NSCLC
# ACHN renal = test system: ACHN renal
# BT-549 breast = test system: BT-549 breast
# CAKI-1 renal = test system: CAKI-1 renal
# CCRF-CEM leukemia = test system: CCRF-CEM leukemia
# COLO 205 colon = test system: COLO 205 colon
# DU-145 prostate = test system: DU-145 prostate
# EKVX NSCLC = test system: EKVX NSCLC
# HCC-2998 colon = test system: HCC-2998 colon
# HCT-116 colon = test system: HCT-116 colon
# HCT-15 colon = test system: HCT-15 colon
# HL-60(TB) leukemia = test system: HL-60(TB) leukemia
# HOP-62 NSCLC = test system: HOP-62 NSCLC
# HOP-92 NSCLC = test system: HOP-92 NSCLC
# HS 578T breast = test system: HS 578T breast
# HT29 colon = test system: HT29 colon
# IGROV1 ovarian = test system: IGROV1 ovarian
# K-562 leukemia = test system: K-562 leukemia
# KM12 colon = test system: KM12 colon
# LOX IMVI melanoma = test system: LOX IMVI melanoma
# M14 melanoma = test system: M14 melanoma
# MALME-3M melanoma = test system: MALME-3M melanoma
# MCF7 breast = test system: MCF7 breast
# MDA-MB-231 breast = test system: MDA-MB-231 breast
# MDA-MB-435 = test system: MDA-MB-435
# MOLT-4 leukemia = test system: MOLT-4 leukemia
# NCI-H226 lung = test system: NCI-H226 lung
# NCI-H23 lung = test system: NCI-H23 lung
# NCI-H460 lung = test system: NCI-H460 lung
# NCI-H522 lung = test system: NCI-H522 lung
# NCI/ADR-RES ovarian = test system: NCI/ADR-RES ovarian
# OVCAR-3 ovarian = test system: OVCAR-3 ovarian
# OVCAR-4 ovarian = test system: OVCAR-4 ovarian
# OVCAR-5 ovarian = test system: OVCAR-5 ovarian
# OVCAR-8 ovarian = test system: OVCAR-8 ovarian
# PC-3 prostate = test system: PC-3 prostate
# RPMI-8226 leukemia = test system: RPMI-8226 leukemia
# RXF 393 renal = test system: RXF 393 renal
# SF-268 CNS = test system: SF-268 CNS
# SF-295 CNS = test system: SF-295 CNS
# SF-539 CNS = test system: SF-539 CNS
# SK-MEL-2 melanoma = test system: SK-MEL-2 melanoma
# SK-MEL-28 melanoma = test system: SK-MEL-28 melanoma
# SK-MEL-5 melanoma = test system: SK-MEL-5 melanoma
# SK-OV-3 ovarian = test system: SK-OV-3 ovarian
# SN12C renal = test system: SN12C renal
# SNB-19 CNS = test system: SNB-19 CNS
# SNB-75 CNS = test system: SNB-75 CNS
# SR leukemia = test system: SR leukemia
# SW-620 colon = test system: SW-620 colon
# T-47D breast = test system: T-47D breast
# TK-10 renal = test system: TK-10 renal
# U251 CNS = test system: U251 CNS
# UACC-257 melanoma = test system: UACC-257 melanoma
# UACC-62 melanoma = test system: UACC-62 melanoma
# UO-31 renal = test system: UO-31 renal
smiles,measurement,setting,value
COc1c(B(O)O)cccc1-c1nc2c(F)cc3[nH]ncc3c2c2c1CCCC2,GI50,786-0 renal,1.33 µM
same,TGI,786-0 renal,17.6 µM
same,GI50,A498 renal,0.172 µM
same,TGI,A498 renal,3.31 µM
same,GI50,A549 NSCLC,1.05 µM
same,TGI,A549 NSCLC,> 55.8 µM
same,GI50,ACHN renal,0.845 µM
same,TGI,ACHN renal,42.8 µM
same,GI50,BT-549 breast,0.116 µM
same,TGI,BT-549 breast,3.02 µM
same,GI50,CAKI-1 renal,0.333 µM
same,TGI,CAKI-1 renal,3.26 µM
same,GI50,CCRF-CEM leukemia,0.633 µM
same,TGI,CCRF-CEM leukemia,6.92 µM
same,GI50,COLO 205 colon,1.61 µM
same,TGI,COLO 205 colon,6.19 µM
same,GI50,DU-145 prostate,2.18 µM
same,TGI,DU-145 prostate,26.9 µM
same,GI50,EKVX NSCLC,2.61 µM
same,TGI,EKVX NSCLC,34.3 µM
same,GI50,HCC-2998 colon,2.22 µM
same,TGI,HCC-2998 colon,8.91 µM
same,GI50,HCT-116 colon,0.422 µM
same,TGI,HCT-116 colon,> 53.6 µM
same,GI50,HCT-15 colon,2.24 µM
same,TGI,HCT-15 colon,27.6 µM
same,GI50,HL-60(TB) leukemia,0.436 µM
same,TGI,HL-60(TB) leukemia,11.3 µM
same,GI50,HOP-62 NSCLC,0.133 µM
same,TGI,HOP-62 NSCLC,27.1 µM
same,GI50,HOP-92 NSCLC,0.0184 µM
same,TGI,HOP-92 NSCLC,56.8 µM
same,GI50,HS 578T breast,0.0716 µM
same,TGI,HS 578T breast,20.8 µM
same,GI50,HT29 colon,3.07 µM
same,TGI,HT29 colon,> 44 µM
same,GI50,IGROV1 ovarian,1.41 µM
same,TGI,IGROV1 ovarian,23.5 µM
same,GI50,K-562 leukemia,2.14 µM
same,TGI,K-562 leukemia,> 100 µM
same,GI50,KM12 colon,1.41 µM
same,TGI,KM12 colon,11.7 µM
same,GI50,LOX IMVI melanoma,0.865 µM
same,TGI,LOX IMVI melanoma,5.62 µM
same,GI50,M14 melanoma,3.8 µM
same,TGI,M14 melanoma,15.5 µM
same,GI50,MALME-3M melanoma,3.71 µM
same,TGI,MALME-3M melanoma,9.11 µM
same,GI50,MCF7 breast,1.31 µM
same,TGI,MCF7 breast,13.5 µM
same,GI50,MDA-MB-231 breast,0.0423 µM
same,TGI,MDA-MB-231 breast,35.9 µM
same,GI50,MDA-MB-435,0.287 µM
same,TGI,MDA-MB-435,2.06 µM
same,GI50,MOLT-4 leukemia,0.844 µM
same,TGI,MOLT-4 leukemia,> 100 µM
same,GI50,NCI-H226 lung,1.44 µM
same,TGI,NCI-H226 lung,22.7 µM
same,GI50,NCI-H23 lung,1.72 µM
same,TGI,NCI-H23 lung,10.8 µM
same,GI50,NCI-H460 lung,1.79 µM
same,TGI,NCI-H460 lung,11.9 µM
same,GI50,NCI-H522 lung,1.98 µM
same,TGI,NCI-H522 lung,13.1 µM
same,GI50,NCI/ADR-RES ovarian,2.44 µM
same,TGI,NCI/ADR-RES ovarian,22.1 µM
same,GI50,OVCAR-3 ovarian,2.87 µM
same,TGI,OVCAR-3 ovarian,19.3 µM
same,GI50,OVCAR-4 ovarian,5.49 µM
same,TGI,OVCAR-4 ovarian,58.3 µM
same,GI50,OVCAR-5 ovarian,2.65 µM
same,TGI,OVCAR-5 ovarian,56.8 µM
same,GI50,OVCAR-8 ovarian,2.03 µM
same,TGI,OVCAR-8 ovarian,> 100 µM
same,GI50,PC-3 prostate,1.73 µM
same,TGI,PC-3 prostate,> 29 µM
same,GI50,RPMI-8226 leukemia,0.579 µM
same,TGI,RPMI-8226 leukemia,4.59 µM
same,GI50,RXF 393 renal,0.0459 µM
same,TGI,RXF 393 renal,1.67 µM
same,GI50,SF-268 CNS,2.1 µM
same,TGI,SF-268 CNS,18.8 µM
same,GI50,SF-295 CNS,2.23 µM
same,TGI,SF-295 CNS,12.8 µM
same,GI50,SF-539 CNS,0.343 µM
same,TGI,SF-539 CNS,4.99 µM
same,GI50,SK-MEL-2 melanoma,2.42 µM
same,TGI,SK-MEL-2 melanoma,6.8 µM
same,GI50,SK-MEL-28 melanoma,2.95 µM
same,TGI,SK-MEL-28 melanoma,11.3 µM
same,GI50,SK-MEL-5 melanoma,3.08 µM
same,TGI,SK-MEL-5 melanoma,11.5 µM
same,GI50,SK-OV-3 ovarian,1.5 µM
same,TGI,SK-OV-3 ovarian,36.1 µM
same,GI50,SN12C renal,1.24 µM
same,TGI,SN12C renal,45 µM
same,GI50,SNB-19 CNS,1.66 µM
same,TGI,SNB-19 CNS,37.9 µM
same,GI50,SNB-75 CNS,0.0246 µM
same,TGI,SNB-75 CNS,0.498 µM
same,GI50,SR leukemia,2.13 µM
same,TGI,SR leukemia,> 88.5 µM
same,GI50,SW-620 colon,0.604 µM
same,TGI,SW-620 colon,14.4 µM
same,GI50,T-47D breast,2.56 µM
same,TGI,T-47D breast,22.2 µM
same,GI50,TK-10 renal,0.0391 µM
same,TGI,TK-10 renal,> 38.4 µM
same,GI50,U251 CNS,1.77 µM
same,TGI,U251 CNS,> 44.9 µM
same,GI50,UACC-257 melanoma,3.37 µM
same,TGI,UACC-257 melanoma,24 µM
same,GI50,UACC-62 melanoma,1.14 µM
same,TGI,UACC-62 melanoma,9.53 µM
same,GI50,UO-31 renal,0.405 µM
same,TGI,UO-31 renal,19.4 µM
